Experiment [1] concerns the target pim-1 kinase (Homo sapiens, UniProt P11309). In words: Measurement of pim-1 kinase inhibitory activity (fluorescent substrate peptide, capillary electrophoresis). The class given is biochemical. The conditions noted are these: 0.1 μM of each compound, 30 μM ATP, 1.5 μM substrate peptide, room temperature 2 hours. The procedure:
Measurement of Pim-1 Kinase Inhibitory Activity
The result of the reaction was determined by quantifying the substrate and the phosphorylated reaction product separated by capillary electrophoresis based on difference in charges of the substances (EZ Reader II, Caliper Life Sciences, was used).

For experiment [2], the system named is Human acute myeloid leukemia MV4-11 cells. As to the kind of experiment: Cell proliferation-suppressing activity, chromogenic method (MTT assay). The format is cell-based. The conditions noted are these: 72 h, compound 1 μM, MTT assay three days after addition, Table 3. On the procedure:
(§1) Measurement of Cell Proliferation-Suppressing Activity (Chromogenic Method)
Human acute myeloid leukemia MV4-11 cells (10^4 cells) were inoculated on a 96-well microtiter plate, each compound was added at a final concentration of 1 μM 24 hours afterward, and MTT assay was performed three days after the addition of the compound to measure the cell proliferation-suppressing activity.

Experiment [3] shares this test system. In words: Cell proliferation-suppressing activity, chromogenic method (Cell Counting Kit-8). The class given is cell-based. To be noted: compound 1 μM, 48 hours, Cell Counting Kit-8, absorbance 450 nm, Table 7. On the procedure:
as §1
Human acute myeloid leukemia MV4-11 cells (2×10^4 cells) are inoculated on a 96-well microtiter plate. Each compound is added at a final concentration of 1 μM on the next day, and the cells are cultured for additional 48 hours. Absorbance is measured at 450 nm by using Cell Counting Kit-8 (Nacalai Tesque) to calculate the cell proliferation-suppressing activity.

Structures can show the parent of a compound that is named as a salt.

Sequence of pim-1 kinase (P11309 whole entry): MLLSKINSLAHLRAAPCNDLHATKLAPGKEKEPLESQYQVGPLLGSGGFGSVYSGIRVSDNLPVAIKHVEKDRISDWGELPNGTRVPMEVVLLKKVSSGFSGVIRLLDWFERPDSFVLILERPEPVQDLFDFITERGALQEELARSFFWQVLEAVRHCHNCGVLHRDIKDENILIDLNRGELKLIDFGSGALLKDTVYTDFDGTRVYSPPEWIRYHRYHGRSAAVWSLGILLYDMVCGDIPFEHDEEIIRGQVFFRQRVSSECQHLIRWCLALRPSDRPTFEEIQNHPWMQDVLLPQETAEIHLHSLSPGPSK

In turn, `CN(C)C1CCN(Cc2c(O)ccc3c2O/C(=C\c2c[nH]c4ccccc24)C3=O)C1` (stereo not drawn) [Compound A3, (Z)-2-[(1H-Indol-3-yl)methylene]-7-{[3-(dimethylamino)pyrrolidin-1-yl]methyl}-6-hydroxybenzofuran-3(2H)-one] returned an inhibition at 0.1 µM in experiment [1] (Table 1) of 47%. In addition, 1 µM produced 41% inhibition in experiment [2].

In experiment [1] (Table 1), `O=C1CN(Cc2c(O)ccc3c2O/C(=C\c2c[nH]c4ccccc24)C3=O)CCN1` [Compound A7, (Z)-4-({2-[(1H-Indol-3-yl)methylene]-6-hydroxy-3-oxo-2,3-dihydrobenzofuran-7-yl}methyl)piperazin-2-one] showed an inhibition at 0.1 µM of 81%. This molecule registered an inhibition at 1 µM in experiment [2] of 22%.

In turn, `O=C1/C(=C/c2c[nH]c3ccccc23)Oc2c1ccc(O)c2CN1CCNCC1` [Compound A11, (Z)-2-[(1H-Indol-3-yl)methylene]-6-hydroxy-7-(piperazin-1-ylmethyl)benzofuran-3(2H)-one] returned an inhibition at 0.1 µM in experiment [1] (Table 1) of 87%. This molecule also registered an inhibition at 1 µM in experiment [2] of 82%.

Take `O=C1/C(=C/c2c[nH]c3ccc([N+](=O)[O-])cc23)Oc2c1ccc(O)c2CN1CCNCC1` [Compound A17, (Z)-6-Hydroxy-2-[(5-nitro-1H-indol-3-yl)methylene]-7-(piperazin-1-ylmethyl)benzofuran-3(2H)-one dihydrochloride]: the inhibition at 0.1 µM in experiment [1] (Table 1) came to 82%. The same molecule had an inhibition at 1 µM in experiment [2] of 73%.

On to `COc1ccc2c(c1CCCCN1CCNCC1)O/C(=C\c1n[nH]c3ccccc13)C2=O` [Compound B51, (Z)-2-[(1H-Indazol-3-yl)methylene]-6-methoxy-7-[4-(piperazin-1-yl)butyl]benzofuran-3(2H)-one], for which the inhibition at 0.1 µM in experiment [1] (Table 2) was determined as 86%. Also, the inhibition at 1 µM in experiment [3] stood at 94%.

Take `COc1ccc2c(c1C1=CCNCC1)O/C(=C\c1n[nH]c3ccccc13)C2=O` [Compound B52, (Z)-2-[(1H-Indazol-3-yl)methylene]-6-methoxy-7-(1,2,3,6-tetrahydropyridin-4-yl)benzofuran-3(2H)-one]: 0.1 µM produced 50% inhibition in experiment [1] (Table 2). This molecule gave an inhibition at 1 µM in experiment [3] of 98%.

For the molecule `COc1ccc2c(c1C1CCNCC1)O/C(=C\c1n[nH]c3ccccc13)C2=O` [Compound B53, (Z)-2-[(1H-Indazol-3-yl)methylene]-6-methoxy-7-(piperidin-4-yl)benzofuran-3(2H)-one], the inhibition at 0.1 µM in experiment [1] (Table 2) turned out to be 36%. The same molecule had an inhibition at 1 µM in experiment [3] of 98%.

`COc1ccc2c(c1CC1CCNCC1)O/C(=C\c1n[nH]c3ccccc13)C2=O` [Compound B54, (Z)-2-[(1H-Indazol-3-yl)methylene]-6-methoxy-7-(piperidin-4-ylmethyl)benzofuran-3(2H)-one] yielded an inhibition at 0.1 µM in experiment [1] (Table 2) of 98%. In addition, testing at 1 µM in experiment [3] gave an inhibition of 97%.

`COc1ccc2c(c1C#CC1CCNCC1)O/C(=C\c1n[nH]c3ccccc13)C2=O` [Compound B55, (Z)-2-[(1H-Indazol-3-yl)methylene]-6-methoxy-7-(piperidin-4-ylethynyl)benzofuran-3(2H)-one] gave an inhibition at 0.1 µM in experiment [1] (Table 2) of 84%. Besides, the inhibition at 1 µM in experiment [3] worked out at 99%.

`COc1ccc2c(c1/C=C\C1CCNCC1)O/C(=C\c1n[nH]c3ccccc13)C2=O` [Compound B56, (Z)-2-[(1H-Indazol-3-yl)methylene]-6-methoxy-7-[(Z)-2-(piperidin-4-yl)vinyl]benzofuran-3(2H)-one] showed an inhibition at 0.1 µM in experiment [1] (Table 2) of 95%. In addition, the inhibition at 1 µM in experiment [3] was 99%.

As for `COc1ccc2c(c1CCC1CCNCC1)O/C(=C\c1n[nH]c3ccccc13)C2=O` [Compound B57, (Z)-2-[(1H-Indazol-3-yl)methylene]-6-methoxy-7-[2-(piperidin-4-yl)ethyl]benzofuran-3(2H)-one], in experiment [1] (Table 2), 0.1 µM produced 89% inhibition. The inhibition at 1 µM in experiment [3] amounted to 99%.

In turn, `COc1ccc2c(c1C#CCC1CCNCC1)O/C(=C\c1n[nH]c3ccccc13)C2=O` [Compound B58, (Z)-2-[(1H-Indazol-3-yl)methylene]-6-methoxy-7-[3-(piperidin-4-yl)prop-1-ynyl]benzofuran-3(2H)-one] came in with an inhibition at 0.1 µM in experiment [1] (Table 2) of 90%. Also, in experiment [3], 1 µM produced 94% inhibition.

`COc1ccc2c(c1/C=C\CC1CCNCC1)O/C(=C\c1n[nH]c3ccccc13)C2=O` [Compound B59, (Z)-2-[(1H-Indazol-3-yl)methylene]-6-methoxy-7-[(Z)-3-(piperidin-4-yl)prop-1-enyl]benzofuran-3(2H)-one] gave an inhibition at 0.1 µM in experiment [1] (Table 2) of 96%. For the same molecule, the inhibition at 1 µM in experiment [3] came to 55%.

In turn, `COc1ccc2c(c1CCCC1CCNCC1)O/C(=C\c1n[nH]c3ccccc13)C2=O` [Compound B60, (Z)-2-[(1H-Indazol-3-yl)methylene]-6-methoxy-7-[3-(piperidin-4-yl)propyl]benzofuran-3(2H)-one] gave an inhibition at 0.1 µM in experiment [1] (Table 2) of 95%. Besides, the inhibition at 1 µM in experiment [3] is 98%.

On to `COc1ccc2c(c1C#CCCC1CCNCC1)O/C(=C\c1n[nH]c3ccccc13)C2=O` [Compound B61, (Z)-2-[(1H-Indazol-3-yl)methylene]-6-methoxy-7-[4-(piperidin-4-yl)but-1-ynyl]benzofuran-3(2H)-one], for which the inhibition at 0.1 µM in experiment [1] (Table 2) is 70%. The molecule also registered an inhibition at 1 µM in experiment [3] of 97%.

Regarding `COc1ccc2c(c1/C=C\CCC1CCNCC1)O/C(=C\c1n[nH]c3ccccc13)C2=O` [Compound B62, (Z)-2-[(1H-Indazol-3-yl)methylene]-6-methoxy-7-[(Z)-4-(piperidin-4-yl)but-1-enyl]benzofuran-3(2H)-one], testing at 0.1 µM in experiment [1] (Table 2) gave an inhibition of 71%. In experiment [3], this molecule showed an inhibition at 1 µM of 93%.

As to `COc1ccc2c(c1CCCCC1CCNCC1)O/C(=C\c1n[nH]c3ccccc13)C2=O` [Compound B63, (Z)-2-[(1H-Indazol-3-yl)methylene]-6-methoxy-7-[4-(piperidin-4-yl)butyl]benzofuran-3(2H)-one], testing at 0.1 µM in experiment [1] (Table 2) gave an inhibition of 95%. At 1 µM the inhibition in experiment [3] was 95%.

For the molecule `COc1ccc2c(c1/C=C/C1CCNCC1)O/C(=C\c1n[nH]c3ccccc13)C2=O` [Compound B64, (Z)-2-[(1H-Indazol-3-yl)methylene]-6-methoxy-7-[(E)-2-(piperidin-4-yl)vinyl]benzofuran-3(2H)-one], the inhibition at 0.1 µM in experiment [1] (Table 2) amounted to 81%. The molecule also displayed an inhibition at 1 µM in experiment [3] of 93%.

Consider `COc1ccc2c(c1/C=C/CC1CCNCC1)O/C(=C\c1n[nH]c3ccccc13)C2=O` [Compound B65, (Z)-2-[(1H-Indazol-3-yl)methylene]-6-methoxy-7-[(E)-3-(piperidin-4-yl)prop-1-enyl]benzofuran-3(2H)-one], for which the inhibition at 0.1 µM in experiment [1] (Table 2) worked out at 73%. Further, in experiment [3], the inhibition at 1 µM came out at 97%.

For `COc1c(F)cc2c(c1CCC1CCNCC1)O/C(=C\c1n[nH]c3ccccc13)C2=O` [Compound B66, (Z)-2-[(1H-Indazol-3-yl)methylene]-5-fluoro-6-methoxy-7-[2-(piperidin-4-yl)ethyl]benzofuran-3(2H)-one], in experiment [1] (Table 2), the inhibition at 0.1 µM worked out at 89%. Also, the inhibition at 1 µM in experiment [3] was 88%.

Regarding `COc1ccc2c(c1C#CC(C)(C)N1CCNCC1)O/C(=C\c1n[nH]c3ccccc13)C2=O` [Compound B67, (Z)-2-[(1H-Indazol-3-yl)methylene]-6-methoxy-7-[3-methyl-3-(piperazin-1-yl)but-1-ynyl]benzofuran-3(2H)-one], the inhibition at 0.1 µM in experiment [1] (Table 2) turned out to be 46%. Further, 1 µM produced 96% inhibition in experiment [3].

For the molecule `O=C1/C(=C/c2n[nH]c3ncccc23)Oc2c1ccc(O)c2CN1CCNCC1` [Compound B68, (Z)-2-[(1H-Pyrazolo[3,4-b]pyridin-3-yl)methylene]-6-hydroxy-7-(piperazin-1-ylmethyl)benzofuran-3(2H)-one], testing at 0.1 µM in experiment [1] (Table 2) gave an inhibition of 93%. In experiment [3], this molecule displayed an inhibition at 1 µM of 52%.

`COc1ccc2c(c1CN1CCNCC1)O/C(=C\c1n[nH]c3ncccc13)C2=O` [Compound B69, (Z)-2-[(1H-Pyrazolo[3,4-b]pyridin-3-yl)methylene]-6-methoxy-7-(piperazin-1-ylmethyl)benzofuran-3(2H)-one] came in with an inhibition at 0.1 µM in experiment [1] (Table 2) of 95%. In experiment [3], this molecule had an inhibition at 1 µM of 100%.

For `O=C1/C(=C/c2n[nH]c3ncccc23)Oc2c(CN3CCNCC3)cccc21` [Compound B70, (Z)-2-[(1H-Pyrazolo[3,4-b]pyridin-3-yl)methylene]-7-(piperazin-1-ylmethyl)benzofuran-3(2H)-one], testing at 0.1 µM in experiment [1] (Table 2) gave an inhibition of 94%. The molecule also registered an inhibition at 1 µM in experiment [3] of 77%.

Regarding `COc1ccc2c(c1CC1CCNCC1)O/C(=C\c1n[nH]c3ncccc13)C2=O` [Compound B71, (Z)-2-[(1H-Pyrazolo[3,4-b]pyridin-3-yl)methylene]-6-methoxy-7-(piperidin-4-ylmethyl)benzofuran-3(2H)-one], at 0.1 µM the inhibition in experiment [1] (Table 2) was 95%. This molecule had an inhibition at 1 µM in experiment [3] of 100%.

`COc1ccc2c(c1CCC1CCNCC1)O/C(=C\c1n[nH]c3ncccc13)C2=O` [Compound B72, (Z)-2-[(1H-Pyrazolo[3,4-b]pyridin-3-yl)methylene]-6-methoxy-7-[2-(piperidin-4-yl)ethyl]benzofuran-3(2H)-one]: the inhibition at 0.1 µM in experiment [1] (Table 2) amounted to 97%. In experiment [3], this molecule came in with an inhibition at 1 µM of 93%.

In experiment [1] (Table 2), `COc1ccc2c(c1Cc1c(C)n[nH]c1C)O/C(=C\c1n[nH]c3ccccc13)C2=O` [Compound B73, (Z)-2-[(1H-Indazol-3-yl)methylene]-7-[(3,5-dimethyl-1H-pyrazol-4-yl)methyl]-6-methoxybenzofuran-3(2H)-one] returned an inhibition at 0.1 µM of 49%. This molecule also returned an inhibition at 1 µM in experiment [3] of 81%.

The record behind these values is patent US9156827B2, “Anticancer agent” (THE UNIVERSITY OF TOKYO, priority 2010, dated 2015).
